Test results: US11874276B2, “STING levels as a biomarker for cancer immunotherapy” (Dana-Farber Cancer Institute, Inc., priority 2018, dated 2024)
Entries after “also recorded” stand apart in the source; their conditions may differ.

What was measured:
Format in all cases: cell-based, human
A549 cells = assay: Immunoblot of STING in KL cell lines with LKB1 reconstitution with or without DNMT inhibitor; conditions: A549 cells (KL DNMT high) with LKB1 reconstitution
Procedure: FIGS. 16A to 16C. FIG. 16A: Immunoblot of the indicated proteins in KL cell lines transduced with the indicated vector. FIG. 16B: Correlation between STING and DNMT1 expression in KL cell lines. FIG. 16C: Immunoblot of the indicated proteins in KL cell lines transduced with the indicated vector with or without 100 nM 5-aza-2′-deoxycytidine (DAC) treatment for 7 days.

TNBC cell lines = assay: CXCL10 secretion by TNBC cell lines treated with STING agonist; conditions: all TNBC cell lines, relative to a control
Procedure: TNBC cell lines were also assayed for their responsiveness to the STING agonist AduroS100. Cells were treated with AduroS100 or a control and CXCL10 levels secreted into the supernatant were measured.

H69AR cells [1] = assay: IFNγ pulsed H69AR cells chased in media with drug; pSTAT1 immunoblot, CXCL10/ERV qRT-PCR, CXCL10 ELISA; conditions: 10 min IFNγ pulse, 24 h chase, 1 μM
Procedure: For IFN pulse experiments, cells were pulsed 10 minutes with IFN-γ 200 ng/mL or 10 ng/mL), IFN-α 10 000 U/mL), or IFN-β 10 000 U/mL), extensively washed, and chased in fresh media for an additional 24, 48 or 72 hours. To test drug effects on gene expression or protein secretion, IFN-γ pulsed H69AR cells were treated with DMSO, 1 μM MRT67307 or 100 nM Ruxolitinib for 24, 48 and 72 hours. Proteome Profiler™ Human Cytokine Array Kit (#ARY005B) and CXCL10 ELISA (#DIP100) (R&D Systems, Minneapolis, MN), were performed according to manufacturer's instructions. For cytokine array, conditioned media (CM) from SCLC cells at basal conditions was collected after 48 and 72 hours. For CXCL10 ELISA, CM from IFN-γ pulsed cells was collected after 72 hours. Total cellular RNA was extracted using the miRNeasy Mini Kit (Qiagen, Hilden, Germany) according to manufacturer's instructions. After extraction, 1 μg total RNA was used to generate cDNA with the SuperScript III First-Strand Synthesis SuperMix for qRT-PCR kit (Thermo Fisher Scientific, Waltham, MA). Quantitative reverse transcription PCR (qRT-PCR) of the indicated genes was performed using SYBR green PCR Master Mix (Applied Biosystems, Foster City, CA) and the Applied Biosystems 7300 Fast real-time PCR system and software. The relative expression was normalized with the expression of the housekeeping gene 36B4.

H69 cells [2] = assay: EZH2 inhibition of H69 cells followed by IFNγ exposure; SPARCS qRT-PCR and cytokine profiling; conditions: for reactivation / de-repression of SPARCS ERVs: 5 μM for 6 days, then IFNγ 24 h
Procedure: For EZH2 inhibition experiments, H69 cells were treated with 5 μM GSK126 for 6 days. Drug was replenished every 3 days with both suspension and adherent cells carried each time. After the GSK126 treatment period, equal numbers of DMSO-treated and GSK126-treated cells were exposed to either H2O or 200 ng/mL IFN-γ for 24 hours before harvesting of RNA or conditioned media (CM).
(§1) Multiplex assays were performed utilizing the bead-based immunoassay approach Bio-Plex Pro™ Human Cytokine 40-plex Assay (Cat #171AK99MR2) on a Bio-plex 200 system (Cat #171000201) (Bio-Rad Laboratories, Hercules, CA) and the Human Cytokine/Chemokine Maganetic Bead Panel (Cat #HCYTMAG-60K-PX30) on a Luminex MAGPIX system (Merck Millipore, Billerica, MA). Conditioned media concentration levels [pg/ml] of each protein were derived from 5-parameter curve fitting models. Fold changes relative to the corresponding control were calculated and plotted as log 2FC. Lower and upper limits of quantitation (LLOQ/ULOQ) were imputed from standard curves for cytokines above or below detection.
(§2) Total cellular RNA was extracted using the miRNeasy Mini Kit (Qiagen, Hilden, Germany) according to manufacturer's instructions. After extraction, 1 μg total RNA was used to generate cDNA with the SuperScript III First-Strand Synthesis SuperMix for qRT-PCR kit (Thermo Fisher Scientific, Waltham, MA). Quantitative reverse transcription PCR (qRT-PCR) of the indicated genes was performed using SYBR green PCR Master Mix (Applied Biosystems, Foster City, CA) and the Applied Biosystems 7300 Fast real-time PCR system and software. The relative expression was normalized with the expression of the housekeeping gene 36B4.

H69 cells [3] = assay: Immunoblot of STING in H69 cells after GSK126 treatment
From the text: Immunoblot of STING, histone H3K27me3 and β-actin levels in H69 cells after GSK126 (EZH2 inhibitor) treatment at the indicated concentrations and for the indicated number of days.
(§3) Protein was isolated from cell lines and measured by BCA (Pierce Biotechnology). Protein extracts were subjected to polyacrylamide gel electrophoresis using the 4%-12% NuPAGE gel system (Invitrogen, Carlsbad, CA), transferred to PVDF (Millipore) membranes, and immunoblotted using antibodies that specifically recognize TBK1 (#3013), S172 pTBK1 (#5483), pERK1/2 (#4370), ERK1/2 (#9107), S473 pAKT (#4060), AKT (#9272), S396 pIRF3 (#4947), IRF3 (#4302), Y701 pSTAT1 (#9171), STAT1 (#9172), AXL (#8661), EZH2 (#5246), STING (#13647), MAVS (#3993), E-Cadherin (#3195), Vimentin (#5741), β-Actin (#4970), Tubulin (#2144) (Cell Signaling Technologies, Danvers, MA) and IKKε (#14907) (Sigma-Aldrich, St. Louis, MO).

[4] = test system: H69AR cells, SPARCS high cell lines; assay: IFN pulse-chase of SCLC and other cancer cell lines; qRT-PCR, immunoblot
Procedure: To test drug effects on gene expression or protein secretion, IFN-γ pulsed H69AR cells were treated with DMSO, 1 μM MRT67307 or 100 nM Ruxolitinib for 24, 48 and 72 hours.
as §3, §2

NSCLC PDOTS = assay: Ex vivo culture of patient-derived organotypic tumor spheroids (PDOTS); cytokine profiling and viability; conditions: in contrast to NSCLC-2; for production of multiple cytokines/chemokines, especially CXCL10: NSCLC-1 PDOTS (SPARCS high features); for sensitization to ex vivo PD-1 blockade with nivolumab: NSCLC-1 PDOTS, viability Day 6
From the text: PDOTS from human NSCLC resection specimens were generating according to the recent publication^21. Briefly, fresh tumor specimens were minced and resuspended in media with collagenase type IV (Life Technologies, Carlsbad, CA). After digestion, samples were strained over 100 μm filter and 40 μm filters to generate S1 (>100 μm), S2 (40-100 μm), and S3 (<40 μm) spheroid fractions. S2 spheroid fraction was pelleted and resuspended in type I rat tail collagen (Corning, Corning, NY) at a concentration of 2.5 mg/mL. The spheroid-collagen mixture was then injected into the center gel region of the 3D microfluidic culture device. Collagen hydrogels containing PDOTS were hydrated with media and treated with anti-PD-1 (Nivolumab, 100 μg/mL), IFNγ (200 ng/mL), Poly (I:C) (0.5 μg/mL) or combination (Nivolumab+IFNγ Nivolumab+Poly (I:C)). The number of Live/Dead cells in each treatment condition was determined by Trypan Blue Exclusion method and plotted as percentage of viability.
as §1

H69AR cells [5] = assay: Poly(I:C) transfection of H69AR cells; qRT-PCR; conditions: 72 h following transfection
Procedure: as §2
For Poly(I:C) dsRNA treatment experiments, H69ARsgCTRL and H69ARsgMAVS cells were plated in RPMI media, transfected with 0.5 μg/mL Poly(I:C) HMW (InvivoGen, Sand Diego, CA) using XtremeGene HP transfection reagent (Sigma-Aldrich, St. Louis, MO) and cultured for 72 hours. On day 3 after transfection, conditioned media was recovered and CXCL10 protein expression was quantified using Human CXCL10/IP-10 Quantikine ELISA kit (R&D Systems, Minneapolis, MN). RNA was extracted and expression levels of relevant genes were analyzed by qRT-PCR.

Nc1ncn([C@H]2C[C@H](O)[C@@H](CO)O2)c(=O)n1 [DNMT inhibitor, 5-aza-2′-deoxycytidine]
STING expression (A549 cells): able to restore STING expression

Nc1ncnc2c1ncn2[C@@H]1O[C@@H]2COP(O)(=S)O[C@@H]3C(O)[C@@H](COP(O)(=S)O[C@H]2[C@H]1O)O[C@H]3n1cnc2c(N)ncnc21 (some centres unmarked) [AduroS100]
CXCL10 levels secreted into the supernatant (TNBC cell lines): elevated levels; also recorded: increased CXCL10 production

O=C(NCCCNc1nc(Nc2cccc(CN3CCOCC3)c2)ncc1C1CC1)C1CCC1 [MRT67307]
effect on downstream CXCL10 expression (H69AR cells [1]): partially inhibited

CC[C@H](C)n1cc(C)c2c(C(=O)NCc3c(C)cc(C)[nH]c3=O)cc(-c3ccc(N4CCNCC4)nc3)cc21 [GSK126]
reactivation / de-repression of SPARCS ERVs (H69 cells [2]): induced their reactivation | reactivation / de-repression of SPARCS ERVs (H69 cells [2]; listed as EZH2 inhibitor): de-repressed the same SPARCS as in H69AR cells | IFNγ induced cytokine secretion (H69 cells [2]; treatment over 6 days): enhanced | STING protein expression (H69 cells [3]): induces STING protein expression

IFNα
SPARCS upregulation (MLT1C49, MLT1A) ([4]; H69AR cells, 10 min pulse with chase): SPARCS upregulation

Poly(I:C)
production of multiple cytokines/chemokines, especially CXCL10 (NSCLC PDOTS): markedly enhanced; also recorded: markedly enhances CXCL10 production | sensitization to ex vivo PD-1 blockade with nivolumab (NSCLC PDOTS): sensitized; also recorded: sensitizes them to PD-1 blockade | SPARCS upregulation (H69AR cells [5]): SPARCS upregulation | induction of type I/II IFNs (H69AR cells [5]): Induction of type I/II IFNs was also confirmed

B1: IFNγ: Recombinant human IFN-γ protein from R&D Systems (protein, UniProt P01579 24-161, looked up)
Interferon gamma: QDPYVKEAENLKKYFNAGHSDVADNGTLFLGILKNWKEESDRKIMQSQIVSFYFKLFKNFKDDQSIQKSVETIKEDMNVKFFNSNKKKRDDFEKLTNYSVTDLNVQRKAIHELIQVMAELSPAAKTGKRKRSQMLFRG
production of multiple cytokines/chemokines, especially CXCL10 (NSCLC PDOTS): markedly enhanced | sensitization to ex vivo PD-1 blockade with nivolumab (NSCLC PDOTS): sensitized | pTBK1, pIRF3 and pSTAT1 activation ([4]; H69AR but not H69 cells, pulse treatment): hyperactivated and sustained | induction of TRIM22 and MLT1C49 ([4]; H69AR cells, 10 minute pulse): marked induction | MLT1C49, CXCL10 and PD-L1 expression ([4]; SPARCS high cells relative to SPARCS low cells, pulse treatment): significantly induced
